Test results taken from patent US6410575B1, “Viral treatment” (The Procter & Gamble Company, priority 1999, dated 2002).
Converted amounts (≈) assume the structure as drawn. “And” between values parts separate entries of the source, which are not always exact repeats. Equal values may be shown once. Read-outs that look alike come from different tables or passages of the source.

Experiments:
[1] = tested on: U937RF, a protease resistant strain; experiment: Long term in vitro study, U937RF; assay type: cell-based, HIV
Description: Toxicity quantification involves the XTT-based evaluation. Assays were designed to characterize the long term effects of the compounds on virus production and to characterize the longer term effects of the compounds on virus production from chronically HIV infected cells.
CEM-SS cells chronically infected with HIV isolate, for example SKI (CEM-SKI) are cultured in RPMI1640 tissue culture medium supplemented with 10% fetal bovine serum and antibiotics. […] CEM-SKI or other infected cells with no added drug are used as the control cells.
Cells are allowed to grow to a density of approximately 1×10^6 cells/ml and are then passaged at a 1:10 dilution. […] The drug concentration in the flask is then increased two-fold and the cells maintained as above.
The cell populations contain integrated copies of the HIV genome and constitutively produce HIV at relatively high levels or are latently infected and only produce virus after stimulation with phorbol esters, tumor necrosis factor or IL6(U1 and ACH2). Reductions in virus products were observed when quantifying supernatant reverse transcriptase activity.
The results with U937RF cells were reported at weekly intervals.

[2] = tested on: hepatitis B; experiment: In vitro virus production test of hepatitis B, HEPG2 2.2.15; assay type: cell-based; conditions: for IC50: Hepatitis B virus, HepG2 2.2.15, hepatitis B, read-out: IC50
[3] = tested on: BVDV; experiment: BVDV testing in vitro; assay type: cell-based, bovine diarrhea virus
Excerpt: DMSO had no effect, as expected.
BVDV is a bovine diarrhea virus and is a well known surrogate virus for hepatitis C which cannot be cultured in vitro.

[4] = target: HIV-1 integrase (Human immunodeficiency virus type 1 group M subtype B, UniProt P04585); experiment: Integrase inhibition assay (autoradiography); assay type: biochemical
Excerpt: A biochemical integrase assay described by Craigie et at (HIV, vol. 2: A practical Approach) Biochemistry, Molecular Biology and Drug Discovery, Ed. J. Kam 1995) to screen agents for their ability to inhibit HIV-1 integrase can be used. In this system, a kinased oligonucleotide serves as the target of 3′ processing and the subsequent strand transfer reaction. The 3′ processing reaction involves the removal of 2 nucleotides from the 3′ ends of the substrate. This is followed by the strand transfer reaction in which the 3′ ends are joined to the exposed 5′ ends. The 20 μl reaction mixture contains 25 mM MOPS (pH 7.2), […] BSA, 10 mM β-mercaptoethanol, 10% glycerol; 7.5 mM MnCl2, 25 nM (7 ng) substrate (Oligo's Etc., Wilsonville, Oreg.) and 200 nM (128 ng) integrase (NIAID AIDS Research and Reference Reagent Program, Bethesda, Md.). The reaction proceeds at 37° C. for 1-2 hours and is terminated by the addition of 20 μl of sequencing stop solution (USB Amersham, Arlington Heights, Ill.). The reaction products are visualized by autoradiography following electrophoresis in 15% polyacrylamide 6M Urea gel. The substrate migrates as a 30 mer, the product of 3′ processing migrates as an N-2 band and the strand transfer products migrate more slowly at various sizes larger than the substrate.
The mechanism of action of the (5-aryl-1,2,4-thiadiazol)-3-yl thiourea derivatives or (5-aryl-1,2,4-thiadizol)-3-yl urea derivatives is not known.

[5] = tested on: Human Herpes Virus 8 (HHV8); experiment: Kaposi's sarcoma / HHV8 DNA copy number in TPA-induced BCBL-1 cells; assay type: cell-based
Description: The DNA copy number and the toxicity value were measured and compared with Cidofovir. Kaposi's sarcoma (KS) is a cancer that is often found in people with weak immune systems, such as those taking immunosuppressants or those with AIDS. The exact nature of the disease is uncertain, but it is almost always found in association with HHV8.

NC(=S)Nc1nsc(-c2ccccc2)n1
virus production (supernatant reverse transcriptase activity) ([1]; 7 μg/ml, day 4): 1627 | virus production (supernatant reverse transcriptase activity) ([1]; 7 μg/ml, day 11): 1526 | virus production (supernatant reverse transcriptase activity) ([1]; 7 μg/ml, day 18): 4086 | virus production (supernatant reverse transcriptase activity) ([1]; 7 μg/ml, day 25): 5303 | virus production (supernatant reverse transcriptase activity) ([1]; 7 μg/ml, day 32): 4827 | virus production (supernatant reverse transcriptase activity) ([1]; 7 μg/ml, day 39): 6008 | virus production (supernatant reverse transcriptase activity) ([1]; 7 μg/ml, day 46): 3586 | virus production (supernatant reverse transcriptase activity) ([1]; 7 μg/ml, day 53): 5726 | virus production (supernatant reverse transcriptase activity) ([1]; 15 μg/ml, day 4): 1575 | virus production (supernatant reverse transcriptase activity) ([1]; 15 μg/ml, day 11): 1482 | virus production (supernatant reverse transcriptase activity) ([1]; 15 μg/ml, day 18): 3772 | virus production (supernatant reverse transcriptase activity) ([1]; 15 μg/ml, day 25): 2654 | virus production (supernatant reverse transcriptase activity) ([1]; 15 μg/ml, day 32): 1594 | virus production (supernatant reverse transcriptase activity) ([1]; 15 μg/ml, day 39): 3538 | virus production (supernatant reverse transcriptase activity) ([1]; 15 μg/ml, day 46): 2426 | virus production (supernatant reverse transcriptase activity) ([1]; 15 μg/ml, day 53): 3976 | virus production (supernatant reverse transcriptase activity) ([1]; 30 μg/ml, day 4): 1751 | virus production (supernatant reverse transcriptase activity) ([1]; 30 μg/ml, day 11): 1237 | virus production (supernatant reverse transcriptase activity) ([1]; 30 μg/ml, day 18): 2892 | virus production (supernatant reverse transcriptase activity) ([1]; 30 μg/ml, day 25): 735 | virus production (supernatant reverse transcriptase activity) ([1]; 30 μg/ml, day 32): 1035 | virus production (supernatant reverse transcriptase activity) ([1]; 30 μg/ml, day 39): 1265 | virus production (supernatant reverse transcriptase activity) ([1]; 30 μg/ml, day 46): 1358 | virus production (supernatant reverse transcriptase activity) ([1]; 30 μg/ml, day 53): 2333 | % virus control ([2]; 0.64 μg/ml): 55.1% | DNA Copy Number (per 3 μl), mean ([2]; 0.64 μg/ml): 145.8 per 3 μl | DNA Copy Number (per 3 μl), sample ([2]; 0.64 μg/ml): 131.5 per 3 μl and 155.2 per 3 μl and 150.8 per 3 μl | % virus control ([2]; 2 μg/ml): 31.9% | DNA Copy Number (per 3 μl), mean ([2]; 2 μg/ml): 84.3 per 3 μl | % virus control ([2]; 6.4 μg/ml): 36.1% | DNA Copy Number (per 3 μl), mean ([2]; 6.4 μg/ml): 95.4 per 3 μl | % virus control ([2]; 20 μg/ml): 15.8% | DNA Copy Number (per 3 μl), mean ([2]; 20 μg/ml): 41.9 per 3 μl | % virus control ([2]; 64 μg/ml): 33.1% | DNA Copy Number (per 3 μl), mean ([2]; 64 μg/ml): 87.5 per 3 μl | DNA Copy Number (per 3 μl), sample ([2]; 64 μg/ml): 98.6 per 3 μl and 76.0 per 3 μl and 87.8 per 3 μl | % virus control ([2]; 200 μg/ml): 22.7% | DNA Copy Number (per 3 μl), mean ([2]; 200 μg/ml): 60.0 per 3 μl | IC50 ([2]; HEPG2 2.2.15, replicate experiment): 0.76 µg/mL (≈ 3.22 µM) | IC50 ([2]; HEPG2 2.2.15): 0.94 µg/mL (≈ 3.98 µM) | therapeutic index or TI ([2]; hepatitis B, HEPG2 2.2.15): 212.8 | TI ([2]; hepatitis B, HEPG2 2.2.15, replicate experiment): 263.2 | Antiviral Index (AI), TC50/IC50 ([3]; first test): greater than 4000 | Antiviral Index (AI), TC50/IC50 ([3]; second screening test): 1000.4 | EC50 [4]: > 423 µM | activity as an integrase inhibitor [4]: did not show activity | remaining activity at 1 µg/mL ([4]; 1 μg/ml, read-out: HIV-1 integrase inhibition, % no drug control): 108% | remaining activity at 10 µg/mL ([4]; 10 μg/ml, read-out: HIV-1 integrase inhibition, % no drug control): 117% | remaining activity at 100 µg/mL ([4]; 100 μg/ml, read-out: HIV-1 integrase inhibition, % no drug control): 106% | remaining activity at 0.1 µg/mL ([4]; read-out: HIV-1 integrase inhibition, % no drug control): 98.8% | % virus control ([5]; 0.64 μM): 79.1% | DNA Copy Number (per 3 μl), average ([5]; 0.64 μM): 12198.1 per 3 μl | DNA Copy Number (per 3 μl), sample ([5]; 0.64 μM): 1200.5 per 3 μl and 1258.4 per 3 μl and 1198.4 per 3 μl | % virus control ([5]; 2 μM): 71.2% | DNA Copy Number (per 3 μl), average ([5]; 2 μM): 1096.9 per 3 μl | DNA Copy Number (per 3 μl), sample ([5]; 2 μM): 1100.2 per 3 μl and 1000.7 per 3 μl and 1189.7 per 3 μl | % virus control ([5]; 6.4 μM): 67.0% | DNA Copy Number (per 3 μl), average ([5]; 6.4 μM): 1032.6 per 3 μl | DNA Copy Number (per 3 μl), sample ([5]; 6.4 μM): 1003.5 per 3 μl and 1084.5 per 3 μl and 1009.7 per 3 μl | % virus control ([5]; 20 μM): 55.8% | DNA Copy Number (per 3 μl), average ([5]; 20 μM): 860.2 per 3 μl | DNA Copy Number (per 3 μl), sample ([5]; 20 μM): 747.8 per 3 μl and 841.6 per 3 μl and 991.2 per 3 μl | % virus control ([5]; 64 μM): 48.9% | DNA Copy Number (per 3 μl), average ([5]; 64 μM): 753.0 per 3 μl | % virus control ([5]; 200 μM): 26.6% | DNA Copy Number (per 3 μl), average ([5]; 200 μM): 410.7 per 3 μl | TI ([5]; HHV8, BCBL-1 cells): TI = 1.8 | IC50 ([5]; Human gammaherpesvirus 8, BCBL1, HHV8 DNA copy number, BCBL-1 cells): 56.8 µM
